Patent publication US11185527B2, “Methods and compositions relating to steroid hormone receptor-dependent cancers” (Wayne State University, priority 2017, dated 2021)

Key:
C4-2 cells = assay: Cell growth assay; type: cell-based
Description: FIG. 16C is a graph showing the effect of 5′-Fluoro-5,3′-Dihydroxyflavone at various concentrations on growth of C4-2 cells.

[1] = test system: H1650 (lung adenocarcinoma cells), AR-negative; assay: Cell monolayer growth assay (MTT); type: cell-based
Method: FIG. 12D is a graph showing the effect of KCI807 on in vitro growth of AR-negative cell line H1650 cells measured by the MTT assay. All values were plotted relative to the Day zero value. Cells were trypsinized and 3000-4000 cells/well were seeded in 96-well plates coated with poly-D-lysine. The cells were seeded in phenol red-free medium supplemented with 10% FBS, 100 units/ml penicillin, 100 μg/ml streptomycin, 2 mM L-glutamine mixture and sodium pyruvate (1 mM) for LNCaP cells and phenol red-free medium supplemented with 10% FBS, 100 units/ml penicillin, 100 μg/ml streptomycin and 2 mM L-glutamine mixture for VCaP, 22Rv1, DU145, HeLa, HEK293 and H1650 cells. The cells were grown at 37° C. in 5% CO2. Twenty four hours after seeding in the 96-well plates, the cells were treated with the indicated concentration of KCI807 or DMSO (vehicle). The cells were re-treated on Day 3 by removing half the volume of medium and replacing it with fresh treated medium. Cell viability was determined using the MTT assay from day zero until day five. MTT (10 μL, 5 mg/mL) was added to each well and incubated for 2h at 37° C. The formazan crystal sediments were dissolved in 100 μL of DMSO, and the absorbance at 570 nm was measured using the BioTek Synergy 2 Microplate Reader (BioTek, Winooski, Vt.). The assay was conducted in sextuplicate wells and values were normalized to day zero.

[2] = mouse, in vivo
[3] = Body weight and condition of mice in the PDX-PR011 xenograft study; conditions: for % body weight lost/gained: PDX-PR011 study
[4] = test system: ARE-dependent promoter activation by AR; assay: Counter screening assay: ARE-luciferase reporter in recombinant HeLa cells expressing AR; type: cell-based, human; conditions: testosterone-treated recombinant HeLa cells
Description: FIG. 6B is a schematic diagram of the reporter system for the counter screening assay. Recombinant HeLa cells used in this assay are identical to the primary screening cells except for the absence of Gal4-ELK1 and substitution of the Gal4 elements in the promoter with a canonical ARE. In this case, testosterone causes cytosolic AR to translocate to the nucleus and bind to the ARE in the promoter resulting in activation of the luciferase reporter.
The cells generated for counter screening, are HeLa cells stably transduced with a lentiviral plasmid construct containing a minimal promoter-luciferase reporter and an upstream androgen response element (ARE) sequence. These HeLa cells were also transduced with a lentiviral expression plasmid encoding the full-length AR. These lentiviral constructs were made as follows. Custom synthesized PCR primers were used to amplify and clone the ARE sequence from a pG5luc plasmid construct containing an ARE sequence element into the pGreenFire1 ™-mCMV-EF1-Neo (Plasmid) at SpeI (upstream) and BamHI (downstream) sites. pG5luc Vector is well known and the complete sequence has NCBI accession #AF264724. The ARE containing pG5luc plasmid is described in detail in Patki et al., 2013, J Biol Chem, 288:11047-11065. The lentiviral vector expressing ARE-luciferase reporter was then packaged in lentivirus and parental HeLa cells were infected as described below under the heading “Lentivirus-mediated-Transduction.” After 72h of infection, 400 ug/mL of Geneticin was added to the culture medium to select for the transduced cells. These cells were then infected with the lentivirus containing the full length AR expression plasmid described above. After 72h of infection, 2 ug/mL of Puromycin was added to the culture medium to select for the transduced cells. Clonal cells harboring both the ARE-promoter-luciferase reporter and also stably expressing AR were then isolated using cloning cylinders as described above. The selected clones were further expanded and then tested for luciferase induction by testosterone. The clone that gave the greatest luciferase signal to noise ratio in response to testosterone treatment was then chosen for use in the counter screening assay for high throughput small molecule screening. All of the plasmid constructs generated above were sequenced to verify DNA sequences before, the constructs were used.
For high throughput screening, recombinant primary screening cells were first depleted of hormone by growing them for 24h in medium in which the serum used was heat-inactivated and charcoal-stripped. The cells were then plated in 384-well white flat bottom plates (5,000 cells/well) (Corning Product #3570) using a Multidrop (Thermo Fisher Scientific, Waltham, Mass.). […]

In the case of `O=c1cc(-c2cc(O)cc(F)c2)oc2cccc(O)c12` [5′-fluoro-5,3′-dihydroxyflavone], the “growth inhibition of C4-2 cells” value (C4-2 cells) is reported as “inhibited growth”.

With `O=c1cc(-c2cccc(O)c2)oc2cccc(O)c12` [KCI807, 5,3′-dihydroxyflavone] the “growth of H1650 cells” value [1] was “did not appreciably affect the growth”, the “symptoms during the study, 22Rv1 xenograft” value [2] was “asymptomatic” and the “weight loss (in words), 22Rv1 xenograft” value [2] was “did not show appreciable weight loss”. For the same compound, the “% body weight lost/gained” value ([3]; Day 1 after tumor implant) was 0%, the “% body weight lost/gained” value ([3]; Day 2 after tumor implant) was −3.8% and the “% body weight lost/gained” value ([3]; Day 3 after tumor implant) was −4.6%. For the same compound, the “% body weight lost/gained” value ([3]; Day 4 after tumor implant) was −2.3%, the “% body weight lost/gained” value ([3]; Day 5 after tumor implant) was −2.3% and the “% body weight lost/gained” value ([3]; Day 6 after tumor implant) was −1.5%. For the same compound, the “% body weight lost/gained” value ([3]; Day 7 after tumor implant) was 0%, the “% body weight lost/gained” value ([3]; Day 8 after tumor implant) was −1.5% and the “% body weight lost/gained” value ([3]; Day 9 after tumor implant) was “+0.8%”. The “% body weight lost/gained” value ([3]; Day 10 after tumor implant) was “+0.8%”, the “% body weight lost/gained” value ([3]; Day 11 after tumor implant) was “+1.5%” and the “% body weight lost/gained” value ([3]; Day 12 after tumor implant) was “+3.1%”. For the same compound, the “symptoms during the study, PDX-PR011 xenograft” value ([3]; mouse, in vivo) was “asymptomatic” and the “weight loss (in words), PDX-PR011 xenograft” value ([3]; mouse, in vivo) was “did not show appreciable weight loss”.

With `CNC(=O)c1ccc(N2C(=S)N(c3ccc(C#N)c(C(F)(F)F)c3)C(=O)C2(C)C)cc1F` [enzalutamide] the “inhibition of ARE-dependent promoter activation by AR (in words)” value [4] was “completely suppressed the signal”.
